Test results taken from patent US20050048127A1, “Small spherical particles of low molecular weight organic molecules and methods of preparation and use thereof” (priority 2003, published 2005).

What was measured:
[1] = Formation of small spherical particles from first/second solvent mixtures on glass slide under nitrogen flow, graded by polarized light microscope; format: physicochemical; design: key: (+) = predominantly small spherical particles; (+/−) = a mixture of small spherical particles and non-spherical particles; (−) = predominantly non-spherical particles; ppt = the steroid precipitated out during addition of the second solvent
Description: The ability to form small spherical particles of two steroids, beclomethasone dipropionate (BDP) and fluticasone propionate (FP) was examined in matrix experiments using acetone, ethanol, methanol, and methyl ethyl ketone (MEK) individually as the first solvents and water and heptane individually as the second solvents. The amount of second solvent added to the first solvent/steroid solution was varied as 0%, 10%, 20%, 30%, and 40% (v/v). MEK is not miscible with water and methanol is not miscible with heptane, so those combinations were not included in the experiment.
Either BDP or FP was weighed into a large screw cap glass tube and the solvent of choice was added (w/v) to yield a final concentration of 2 mg/mL. The tubes were vortexed and sonicated to completely dissolve the steroid. The sealed tubes containing these solutions were used as stock solutions for subsequent mixture with the appropriate second solvent. Immediately prior to use, an appropriate amount of the second solvent was slowly added to the first solvent/steroid solution while mixing to avoid premature precipitation. After adding the second solvent, the solutions were visually examined to ensure that premature precipitation had not occurred.
A fixture was constructed such that a 0.125-inch diameter orifice nozzle was positioned 1.75 inches above a standard glass microscope slide. Nitrogen gas was allowed to flow at 5 liters per minute through the nozzle and over the slide such that the flow direction of the gas was perpendicular to the surface of the slide. One or two drops of the test solution were placed on the slide directly under the orifice, and the nitrogen flow continued until the slide was dry (one to three minutes depending on the solution composition). Each slide was then examined under a polarized light microscope (Leica EPISTAR, Buffalo, N.Y.) using incident lighting. Each slide was graded for the presence of predominantly small spherical particles (+), a mixture of small spherical particles and non-spherical particles (+/−), and predominantly non-spherical particles (−). Variations in size and size distribution were observed between different test solutions.

[2] = Particle morphology and size by scanning electron microscopy (SEM); format: physicochemical; details: broad distribution, some particles larger than upper value
Method: Particle morphology for the following examples was obtained using Scanning Electron Microscopy (SEM, FEI Quanta 200, Hilsboro, Oreg.). The sample was prepared for analysis by placing a small amount on carbon double-stick tape fixed to an aluminum sample mount. The sample was then sputter-coated using a Cressington sputter coater 108 Auto for 90 seconds and 20 mA. A second SEM instrument (Amray 1000, Bedford, Mass.) was used to obtain additional images of the small spherical particles, due to its higher resolution capabilities. Particle morphology for the following examples was obtained using Scanning Electron Microscopy (FEI Quanta 200, Hilsboro, Oreg.). FIG. 4 presents SEM of micronized budesonide starting material and FIG. 5 presents SEM of the resulting budesonide small spherical particles.

[3] = first solvent MEK, 0% second solvent (2 mg/mL stock solution)
[4] = first solvent acetone, 0% second solvent (2 mg/mL stock solution)
[5] = first solvent acetone, 10% heptane
[6] = first solvent acetone, 10% water
[7] = first solvent acetone, 20% heptane
[8] = first solvent acetone, 20% water
[9] = first solvent acetone, 30% heptane
[10] = first solvent acetone, 30% water
[11] = first solvent acetone, 40% heptane
[12] = first solvent acetone, 40% water
[13] = first solvent ethanol, 0% second solvent (2 mg/mL stock solution)
[14] = first solvent ethanol, 10% heptane
[15] = first solvent ethanol, 10% water
[16] = first solvent ethanol, 20% heptane
[17] = first solvent ethanol, 20% water
[18] = first solvent ethanol, 30% heptane
[19] = first solvent ethanol, 30% water
[20] = first solvent ethanol, 40% heptane
[21] = first solvent ethanol, 40% water
[22] = first solvent methanol, 0% second solvent (2 mg/mL stock solution)
[23] = first solvent methanol, 10% water
[24] = first solvent methanol, 20% water
[25] = first solvent methanol, 30% water
[26] = first solvent methanol, 40% water

| SMILES | Formation of small spherical particles [1, 3] | Formation of small spherical particles ([1]; first solvent MEK, 10% heptane) | Formation of small spherical particles ([1]; first solvent MEK, 20% heptane) | Formation of small spherical particles ([1]; first solvent MEK, 30% heptane) | Formation of small spherical particles ([1]; first solvent MEK, 40% heptane) | Formation of small spherical particles [1, 4] | Formation of small spherical particles [1, 5] | Formation of small spherical particles [1, 6] | Formation of small spherical particles [1, 7] | Formation of small spherical particles [1, 8] | Formation of small spherical particles [1, 9] | Formation of small spherical particles [1, 10] | Formation of small spherical particles [1, 11] | Formation of small spherical particles [1, 12] | Formation of small spherical particles [1, 13] | Formation of small spherical particles [1, 14] | Formation of small spherical particles [1, 15] | Formation of small spherical particles [1, 16] | Formation of small spherical particles [1, 17] | Formation of small spherical particles [1, 18] | other results |
| --- | --- | --- | --- | --- | --- | --- | --- | --- | --- | --- | --- | --- | --- | --- | --- | --- | --- | --- | --- | --- | --- |
| CCC(=O)OCC(=O)[C@@]1(OC(=O)CC)[C@@H](C)C[C@H]2[C@@H]3CCC4=CC(=O)C=C[C@]4(C)[C@@]3(Cl)[C@@H](O)C[C@@]21C [Beclomethasone dipropionate] | +/− | + | + | + | + | + | + | + | + | + | +/− | + | +/− | + | + | + | + | +/− | + | +/− | Formation of small spherical particles [1, 19]: +; Formation of small spherical particles [1, 20]: +/−; Formation of small spherical particles [1, 21]: +; Formation of small spherical particles [1, 22]: +; Formation of small spherical particles [1, 23]: +; Formation of small spherical particles [1, 24]: +; Formation of small spherical particles [1, 25]: +; Formation of small spherical particles [1, 26]: + |
| CCC(=O)O[C@]1(C(=O)SCF)[C@H](C)C[C@H]2[C@@H]3C[C@H](F)C4=CC(=O)C=C[C@]4(C)[C@@]3(F)[C@@H](O)C[C@@]21C [Fluticasone propionate] | +/− | − | − | − | − | + | + | + | + | +/− | +/− | − | +/− | − | +/− | − | +/− | − | +/− | − | Formation of small spherical particles [1, 19]: −; Formation of small spherical particles [1, 20]: −; Formation of small spherical particles [1, 21]: −; Formation of small spherical particles [1, 22]: −; Formation of small spherical particles [1, 23]: −; Formation of small spherical particles [1, 24]: ppt; Formation of small spherical particles [1, 25]: ppt; Formation of small spherical particles [1, 26]: ppt |
| CCC(=O)OCC(=O)[C@@]1(OC(=O)CC)[C@@H](C)C[C@H]2[C@@H]3CCC4=CC(=O)C=C[C@]4(C)[C@@]3(Cl)[C@@H](O)C[C@@]21C [micronized BDP starting material, beclomethasone dipropionate] |  |  |  |  |  |  |  |  |  |  |  |  |  |  |  |  |  |  |  |  | particle size distribution [2]: 5-50 microns |
